Literature values as cited in article PMC6476928 (Frontiers in Pharmacology, 2019).

Legend:
[1] = tested on: kv4.1; details: X. laevis oocytes; cited from earlier work
Excerpt: Supplement Data_Sheet_1.docx, table 1: Supplementary Table 1.Activity of spider toxins on Kv2 and Kv4 channel subtypes Activities of spider toxins against different subtypes of Kv2 and Kv4 potassium channels are reported as IC50 (nanomolar) or as percentage of current inhibition at a single dose (nanomolar). Affinity (IC50) measurements | column: kv4.1

[2] = target: T1, Kv4.2 (Homo sapiens, UniProt Q9NZV8); details: X. laevis oocytes, cited from earlier work
T1 sequence (Q9NZV8 1-630): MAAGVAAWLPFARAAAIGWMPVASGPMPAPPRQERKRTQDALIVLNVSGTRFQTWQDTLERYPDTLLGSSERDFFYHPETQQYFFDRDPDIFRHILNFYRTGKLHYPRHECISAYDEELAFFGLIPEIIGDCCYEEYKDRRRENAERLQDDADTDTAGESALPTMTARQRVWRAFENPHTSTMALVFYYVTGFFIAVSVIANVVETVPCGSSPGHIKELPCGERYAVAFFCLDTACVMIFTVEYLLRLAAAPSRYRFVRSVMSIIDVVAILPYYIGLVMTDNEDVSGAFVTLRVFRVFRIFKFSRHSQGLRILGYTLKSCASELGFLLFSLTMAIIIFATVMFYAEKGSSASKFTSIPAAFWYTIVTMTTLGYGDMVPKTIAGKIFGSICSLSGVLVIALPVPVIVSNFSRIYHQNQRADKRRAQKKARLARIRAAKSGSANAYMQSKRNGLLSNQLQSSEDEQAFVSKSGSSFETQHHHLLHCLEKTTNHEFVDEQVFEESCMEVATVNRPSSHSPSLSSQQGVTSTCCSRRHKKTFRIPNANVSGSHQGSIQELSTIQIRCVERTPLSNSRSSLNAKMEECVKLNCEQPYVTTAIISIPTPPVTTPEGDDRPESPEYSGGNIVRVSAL
T1 sequence (Q9NS61 1-270 partner): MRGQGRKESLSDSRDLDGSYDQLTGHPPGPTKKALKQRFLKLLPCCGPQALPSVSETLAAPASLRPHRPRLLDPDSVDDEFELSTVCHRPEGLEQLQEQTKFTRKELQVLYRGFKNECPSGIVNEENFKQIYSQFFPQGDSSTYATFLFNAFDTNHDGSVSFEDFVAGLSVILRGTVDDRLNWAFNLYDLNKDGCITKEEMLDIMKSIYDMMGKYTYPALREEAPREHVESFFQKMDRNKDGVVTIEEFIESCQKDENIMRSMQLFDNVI
Excerpt: (§1) Supplement Data_Sheet_1.docx, table 1: Supplementary Table 1.Activity of spider toxins on Kv2 and Kv4 channel subtypes Activities of spider toxins against different subtypes of Kv2 and Kv4 potassium channels are reported as IC50 (nanomolar) or as percentage of current inhibition at a single dose (nanomolar). Affinity (IC50) measurements | column: kv4.2 || Animal toxins target ion channels, and are thus valuable resources with potential therapeutic applications. The Kv4 subfamily from scorpion ([Maffie et al., 2013]; [Xie et al., 2014]) and spider venom ([Escoubas et al., 2002]; [Ebbinghaus et al., 2004]; [Yuan et al., 2007], [2012]; [DeSimone et al., 2009]) has a rich toxin pharmacology. HaTx, originally isolated from venom of the Chilean rose tarantula (Grammostola spatulata), inhibits Kv4.2 channels effectively, with similar affinity for Kv2.1 ([Swartz and MacKinnon, 1995]; [Swartz, 2007]). Other Kv4 channel inhibitors, Stromatoxin (ScTx1) fr ...

[3] = tested on: kv2.1; details: X. laevis oocytes, Hill relation nH = 1; cited from earlier work
Excerpt: as §1, with “kv2.1” for “kv4.2”

Row | Substance | activity on kv4.1 [1] | IC50 ([2]; Hill relation nH = 1) [nM] | IC50 [3] [nM] | inhibition ([2]; 500nM, read-out: percentage of current inhibition kv4.2) [%]
1 | Stromatoxin [ScTx1, reference compound] | No O | 1.2 |  | 
2 | hanatoxin [HaTx1, reference compound] |  |  | 42 | 70
